What was measured:
Format in all cases: physicochemical
[1] = Spent Solids Fouling Test; conditions: Table 5, glyoxy alkyl diaminol in water and MeOH only
From the text: In every application, the active component of the scavenger system reacts with H2S to from a reaction product. Once all the active scavenger has been so reacted, it is spent. […] Thioethers are much less water soluble than amines, so the reaction products are often insoluble. Thioether bridges also connect spent scavenger molecules to each other, thereby forming insoluble polymeric solids. These solids accumulate and foul (interfere with the function) of the vessel, line, or equipment to which the scavenger is being fed. […] If any solids or insoluble viscous liquids are observed poorly dispersed in the spent scavenger system or clinging to the sides of the vessel, the scavenging system employed in that Long Reaction Time Capacity Test fails this test. A homogeneous, single-phase solution or thin layer of readily flowable non-sticking liquid constitutes a pass.

[2] = Storage Capacity Loss Test; conditions: for BT Capacity Loss / FD Capacity Loss: 72-24 Hrs storage at room temperature; for Min to BT / Min to FD: Short Reaction Time Capacity Test, diaminol in water + 10.00 g MeOH, 20 g test
Method: This test compares the scavenging capacity after 24 hours of storage of the scavenger system at room temperature to that after 72 hours of storage thereof at room temperature. In one embodiment, a sample of the scavenger system is made fresh and split in two portions. The Short Reaction Time Capacity Test is run on one portion after standing 24 hours on the bench at room temperature. Then the same test is run on the other portion after standing 72 hours on the bench at room temperature. The two measured capacities are compared to see if the product degrades in storage. Importantly, some scavengers lose activity with time due to secondary reactions and re-equilibrations that degrade their active form.
Table 5 compares different alkyl substituents on glyoxy alkyl diaminols. These compounds were prepared by reacting one mole of glyoxal, as a 40% aqueous solution, with 2.1 moles of various primary amines in a sufficient amount of MeOH to keep the product from separating into an aqueous layer and a non-aqueous layer. For each amine substituent: methyl (Me), ethyl (Et), normal-propyl (n-Pr), iso-propyl (i-Pr), and iso-propanol [1-propan-2-ol] (i-PrOH), the presence or absence of alpha branching on that substituent is noted. The weight ratios of the diaminols, water, and MeOH, are listed, along with their equivalent weights (Eq. Wt.) and the total equivalents per 20 g test (Eq/test). To measure the product stability, the Storage Capacity Loss between 24 and 72 hours was determined. As described earlier, a fresh sample of the scavenger system is split in two portions. The Short Reaction Time Capacity Test is run on one portion after standing 24 hours on the bench at room temperature. Then the same test is run on the other portion after standing 72 hours on the bench at room temperature. Both the 24-hr and 72-hr capacities (Min to FD and BT) and molar capacities (Min/Eq FD and BT) are listed in the table with the percent capacity loss for each substituent calculated below it. […] The others lost 34% to 77% of their scavenging capacity in 48 hours (72-24), presumably due to secondary reactions and re-equilibrations that degraded their active form. In this system employing only methanol, all of these compositions failed both the Hot Spray Fouling Test and the Spent Water Flowability Test. Two of them, the iso-propylamine [propan-2-amine] and the iso-propanolamine [1-aminopropan-2-ol] passed the Spent Solids Fouling Test.

[3] = Spent Water Flowability Test; parameters: key: Pass: A homogeneous, single-phase solution or thin layer of readily flowable non-sticking liquid constitutes a pass.; Fail: Any solids or thick, sticky insoluble liquid is a fail.; PASS: A homogeneous, single-phase solution or thin layer of readily flowable non-sticking liquid constitutes a pass.; FAIL: Any solids or thick, sticky insoluble liquid is a fail; conditions: Table 5; glyoxy alkyl diaminol in water and MeOH only
Method: In field applications, spent scavenger is disposed of through a wastewater system. Spent scavenger might be soluble in the scavenger system but insoluble in wastewater. If it cannot be disposed of, it is not suitable for use. To ensure wastewater processing runs trouble free, spent scavenger passing the Spent Solids Fouling Test is then added to 39 times its weight in water (2.5%) and examined again for insoluble solids and viscous, sticky liquids that might foul the wastewater system. Any solids or thick, sticky insoluble liquid is a fail. A homogeneous, single-phase solution or thin layer of readily flowable non-sticking liquid constitutes a pass.

Hot Spray Fouling Test = conditions: Table 5; glyoxy alkyl diaminol in water and MeOH only
From the text: In many gas applications, the scavenger must by sprayed into a hot gas stream. This can create insoluble materials (“solids”) as the scavenger system evaporates and/or decomposes. These solids accumulate and foul (interfere with the function) of the vessel, line, or equipment to which the scavenger is being fed. This precludes the scavenger being used in that application. Referring now to FIG. 2, a spray test system 200 is utilized to for the Hot Spray Fouling Test. In one embodiment, an injection atomizer apparatus 22 is employed, wherein the scavenger formulation (not separately labeled) is sprayed onto a sheet 26 through an atomizing nozzle 24, like that used to introduce the scavenger into a gas line, tank, or vessel. The material is first placed in a double boiler (not shown) and brought to 180° F. The heated liquid is then placed in the injection atomizer apparatus 22 and sprayed horizontally onto an aluminum sheet 26 twelve inches away. The chemical drains gravitationally down the sheet where it is funneled into a beaker 28 for collection. If solids are observed on the sheet 26 or in the draining or collected fluid, the sample fails. If no solids are observed, it passes the test.

[4] = Solution Homogeneity Test; conditions: Table 5; glyoxy alkyl diaminol in water and MeOH only
From the text: In one aspect, as two-phase reaction products are problematic, scavenger system homogeneity is desired. The two phases could be emulsified or otherwise finely dispersed, but in practice, even fine, seemingly stable dispersions eventually separate or stratify in extended storage or critical use and are not robust enough for practical use. They are not allowed, for example, to be fed through capillaries for fear of plugging them. In this pass/fail test, a sample is held up for visual inspection in a backlit clear vial. A clear, single-phase, homogeneous solution is a pass. Anything else is a fail.

[5] = Sample Age 24 Hrs at room temperature
[6] = Sample Age 72 Hrs at room temperature

CCCNC(O)C(O)NCCC (stereo not drawn) [n-Pr]
Spent Solids Fouling [1]: Fail
BT Capacity Loss [2]: 55%
FD Capacity Loss [2]: 77%
Min/Eq BT ([2]; Sample Age 24 Hrs): 501 Min/Eq
Min/Eq FD ([2]; Sample Age 24 Hrs): 409 Min/Eq
Min to BT [2, 5]: 38 min
Min to FD [2, 5]: 31 min
Min/Eq BT ([2]; Sample Age 72 Hrs): 224 Min/Eq
Min/Eq FD ([2]; Sample Age 72 Hrs): 92 Min/Eq
Min to BT [2, 6]: 17 min
Min to FD [2, 6]: 7 min
Spent Water Flowability [3]: Fail
Hot Spray Fouling (Hot Spray Fouling Test): Fail
Solution Homogeneity [4]: Pass

CC(O)CNC(O)C(O)NCC(C)O (stereo not drawn)
Spent Solids Fouling [1]: Pass
Spent Solids Fouling ([1]; listed as iso-propanolamine): passed
BT Capacity Loss [2]: 67%
FD Capacity Loss [2]: 54%
Min/Eq BT ([2]; Sample Age 24 Hrs): 444 Min/Eq
Min/Eq FD ([2]; Sample Age 24 Hrs): 192 Min/Eq
Min to BT [2, 5]: 30 min
Min to FD [2, 5]: 13 min
Min/Eq BT ([2]; Sample Age 72 Hrs): 148 Min/Eq
Min/Eq FD ([2]; Sample Age 72 Hrs): 89 Min/Eq
Min to BT [2, 6]: 10 min
Min to FD [2, 6]: 6 min
Spent Water Flowability [3]: Fail
Hot Spray Fouling (Hot Spray Fouling Test): Fail
Solution Homogeneity [4]: Pass

CNC(O)C(O)NC (stereo not drawn) [Me]
Spent Solids Fouling [1]: Fail
BT Capacity Loss [2]: 34%
FD Capacity Loss [2]: 47%
Min/Eq BT ([2]; Sample Age 24 Hrs): 301 Min/Eq
Min/Eq FD ([2]; Sample Age 24 Hrs): 156 Min/Eq
Min to BT [2, 5]: 29 min
Min to FD [2, 5]: 15 min
Min/Eq BT ([2]; Sample Age 72 Hrs): 197 Min/Eq
Min/Eq FD ([2]; Sample Age 72 Hrs): 83 Min/Eq
Min to BT [2, 6]: 19 min
Min to FD [2, 6]: 8 min
Spent Water Flowability [3]: Fail
Hot Spray Fouling (Hot Spray Fouling Test): Fail
Solution Homogeneity [4]: Pass

CCNC(O)C(O)NCC (stereo not drawn) [Et]
Spent Solids Fouling [1]: Fail
BT Capacity Loss [2]: 46%
FD Capacity Loss [2]: 71%
Min/Eq BT ([2]; Sample Age 24 Hrs): 436 Min/Eq
Min/Eq FD ([2]; Sample Age 24 Hrs): 365 Min/Eq
Min to BT [2, 5]: 37 min
Min to FD [2, 5]: 31 min
Min/Eq BT ([2]; Sample Age 72 Hrs): 236 Min/Eq
Min/Eq FD ([2]; Sample Age 72 Hrs): 106 Min/Eq
Min to BT [2, 6]: 20 min
Min to FD [2, 6]: 9 min
Spent Water Flowability [3]: Fail
Hot Spray Fouling (Hot Spray Fouling Test): Fail
Solution Homogeneity [4]: Pass

Reference: patent publication US20220017833A1, “Methods and Compositions for Scavenging Sulfides from Hydrocarbon Fluids and Aqueous Streams” (Nexgen Oilfield Chemicals, LLC, priority 2019, published 2022)
